Source: ChEMBL document CHEMBL3763104, “Antibacterial and antifungal activities of 2,3-pyrrolidinedione derivatives against oral pathogens” (2016)

Experiments:
Candida albicans [1] = assay: Antimicrobial activity against Candida albicans ATCC 90028 biofilm at 1 % after 1 hr by MTT assay relative to control; type: functional
Candida albicans [2] = assay: Antimicrobial activity against Candida albicans ATCC 90028 biofilm at 0.004 % after 1 hr by MTT assay relative to control; type: functional
Candida albicans [3] = assay: Antimicrobial activity against Candida albicans ATCC 90028 biofilm at 0.008 % after 1 hr by MTT assay relative to control; type: functional
Streptococcus mutans [4] = assay: Antimicrobial activity against Streptococcus mutans ATCC 35668 biofilm at 1 % after 1 hr by MTT assay relative to control; type: functional
Streptococcus mutans [5] = assay: Antimicrobial activity against Streptococcus mutans ATCC 35668 biofilm at 0.008 % after 1 hr by MTT assay relative to control; type: functional
Streptococcus mutans [6] = assay: Antimicrobial activity against Streptococcus mutans ATCC 35668 biofilm at 0.2 % after 1 hr by MTT assay relative to control; type: functional
Streptococcus mutans [7] = assay: Antimicrobial activity against Streptococcus mutans ATCC 35668 biofilm at 0.04 % after 1 hr by MTT assay relative to control; type: functional
Candida albicans [8] = assay: Antimicrobial activity against Candida albicans ATCC 90028 biofilm at 0.2 % after 1 hr by MTT assay relative to control; type: functional
Candida albicans [9] = assay: Antimicrobial activity against Candida albicans ATCC 90028 biofilm after 1 hr by MTT assay; type: functional, organism-based

| Compound | inhibition (INH) (Candida albicans [1]) | inhibition (INH) (Candida albicans [2]) | inhibition (INH) (Candida albicans [3]) | inhibition (INH) (Streptococcus mutans [4]) | inhibition (INH) (Streptococcus mutans [5]) | inhibition (INH) (Streptococcus mutans [6]) | inhibition (INH) (Streptococcus mutans [7]) | inhibition (INH) (Candida albicans [8]) | inhibition (Candida albicans [9]) |
| --- | --- | --- | --- | --- | --- | --- | --- | --- | --- |
| CCOC(=O)C1=C(OCc2ccccc2)C(=O)N(Cc2ccc(OC)cc2)C1 | 32.3% | 14.7% | 6% | 0% | 1% | 2.7% | 5% | 23.1% | Dose-dependent effect |
| CCCCCCCCCCC1=C(O[Si](C)(C)C(C)(C)C)C(=O)N(Cc2ccc(OC)cc2)C1 | 31.6% | 9% | 12.1% | 0% | 10.7% | 3.4% | 4.3% | 1.9% | – |
| CCOC(=O)C1=C(O)C(=O)N(Cc2ccc(OC)cc2)C1 | 45.5% | 17.2% | 19.8% | 25.6% | 0% | 51.3% | 3.4% | 10.7% | – |
| COc1ccc(CN2CC(CO)=C(O[Si](C)(C)C(C)(C)C)C2=O)cc1 | 1% | 19.4% | 4.5% | 19.1% | 11.4% | 13.3% | 15.4% | 21.3% | – |
| CCOC(=O)C1=C(OCc2ccccc2)C(=O)N(C(=O)C(NC(=O)OC(C)(C)C)C(C)C)C1 (stereo unspecified) | 50.7% | 7.3% | 10.1% | 89.5% | 23.1% | 48.6% | 28% | 16.7% | Dose-dependent effect |
| N=C(NCCCCCCNC(=N)NC(=N)Nc1ccc(Cl)cc1)NC(=N)Nc1ccc(Cl)cc1 [CHLORHEXIDINE] | – | – | – | – | – | 93.6% | – | 49.9% | – |
| CCOC(=O)C1=C(OCc2ccccc2)C(=O)N(C(=O)[C@@H](N)C(C)C)C1.O=C(O)C(F)(F)F | 36.7% | 12.3% | 18.5% | 47.3% | 0.7% | 3.1% | 1.2% | 11.9% | – |
| CCOC(=O)C1=C(OCc2ccccc2)C(=O)NC1 | 43.2% | 23.2% | 9.2% | 3.4% | 1.3% | 4.8% | 3% | 27.9% | Dose-dependent effect |
| CCOC(=O)C1=C(OC)C(=O)N(C(=O)C(NC(=O)OC(C)(C)C)C(C)C)C1 (stereo unspecified) | 30.7% | 7.8% | 0% | 32.6% | 5% | 16.1% | 9.4% | 15.7% | Dose-dependent effect |
| CCOC(=O)C1=C(O[Si](C)(C)C(C)(C)C)C(=O)N(Cc2ccc(OC)cc2)C1 | 17% | 11.8% | 23.5% | 50.6% | 1.4% | 1.8% | 0.1% | 12.2% | – |
| COc1ccc(CN2CC(CO)=C(OCc3ccccc3)C2=O)cc1 | 36.1% | 6.3% | 7.5% | 5% | 0% | 2.8% | 4.5% | 20.9% | Dose-dependent effect |
| CCCCCCCC/C=C/C1=C(OCc2ccccc2)C(=O)N(Cc2ccc(OC)cc2)C1 | 60.8% | 24.5% | 0.2% | 93.2% | 2.4% | 92.7% | 14.1% | 34% | Dose-dependent effect |
